# From patent US11096934B2, “Compounds and methods useful for treating or preventing hematological cancers” (THE BROAD INSTITUTE, INC., priority 2015, dated 2021)
# Tests used:
# [1] = target: recombinant human DHODH protein (Homo sapiens, UniProt Q02127); assay: In vitro DHODH enzyme inhibition assay; format: biochemical; conditions: in words
# Lys-GFP-ER-HoxA9 cells [2] = assay: Myeloid differentiation assay in Lys-GFP-ER-HoxA9 cells (GFP / CD11b flow cytometry); conditions: for myeloid differentiation: ER-HoxA9 cellular differentiation assay, in words; for effect of uridine supplementation of the media on differentiation: uridine rescue, also U937 and THP1
# Procedure: (See Example 20 for assay details.) After four days of compound treatment, cells were assessed by high-throughput flow cytometry for viability based on forward and side-scatter properties, and for differentiation as determined by the endogenous expression of GFP and cell-surface expression of CD11b (APC fluorescence, FIG. 2C).
# The cell line used was ERHoxA9 myeloblast cell line. […] Removal of beta-estradiol from the culture media inactivates ERHoxA9 and the cells are freed from the HoxA9-differentiation arrest and undergo normal myeloid differentiation.
# Cells were cultured in RPMI (Cellgro) supplemented with 10% fetal bovine serum (Serum Source Int'l), penicillin/streptomycin, L-glutamine (Omega Scientific), 5% conditioned media containing stem cell factor (SCF), and 0.5 μM beta-estradiol (Sigma). On day 1, 25 μL of complete media supplemented with 0.04% Pluronic F-68 (GIBCO) was added to a sterile 384 well culture plate (Greiner) followed by the addition of 0.2 μL of test compound in DMSO (Sigma). Wells contained complete media supplemented with Pluronic F-68 and the 5 μM of the estrogen receptor antagonist fulvestrant that served as a positive control for differentiation. 25 μL of cells (1.2×10^5/ml) in complete media were added and the plates were incubated (37° C./5% CO2) for 4 days. Final concentrations of components were 3,000 cells/well, 4 μM test compound, and 0.4% DMSO.
# On day 5, plates were harvested as follows: 5 μL of an antibody/bead solution consisting of a 1:100 dilution of APC-conjugated anti-mouse CD11b (eBioscience, cloneM1/70) and a 1/500 dilution of polystyrene beads (Spherotech) were added to wells and the plates were incubated for 20 min prior to sampling using the HyperCyt® high throughput flow cytometry platform.
# Cells were cultured in RPMI (Cellgro) supplemented with 10% fetal bovine serum (Serum Source Int'l), penicillin/streptomycin, L-glutamine (Omega Scientific), 5% conditioned media containing stem cell factor (SCF), and 0.5 μM beta-estradiol (Sigma, E2758). On day 1, 25 μL of complete media supplemented with 0.04% Pluronic F-68 (GIBCO) was added to a sterile 384 well culture plate (Greiner) followed by the addition of 0.2 μL of compound dilution arrays in DMSO. Some wells contained complete media supplemented with Pluronic F-68 and 5 μM of the estrogen receptor antagonist fulvestrant that served as a positive control for differentiation. 25 μL of cells (1.2×10^5/ml) in complete media were added and the plates were incubated (37° C./5% CO2) for 4 days. Final concentrations of components were 3,000 cells/well and 0.4% DMSO.
# [3] = tested on: acute promyelocytic leukemia (APL); conditions: ATRA incorporated into treatment regimens; from 20%; cited from earlier work
# U937 cells = assay: Differentiation (CD11b upregulation) in U937 human leukemia cell line; format: cell-based
# Procedure: (§1) The THP-1 and U937 human leukemic cell lines were used within the same procedure as in the primary assay, except using human leukemic cell lines. These are factor-independent cell lines and estrogen-independent cell lines, such that cells were grown simply in RPMI supplemented with 10% fetal bovine serum.
# THP1 cells [4] = assay: Differentiation (CD11b upregulation) in THP1 human leukemia cell line; format: cell-based
# Procedure: as §1
# [5] = tested on: protein O-GlcNAc modification; assay: Immunoblot of protein O-GlcNAc modification; format: cell-based
# Excerpt: FIG. 5E is an immunoblot.
# DHODH and OMPD inhibitors lead to depletion of uridine and to myeloid differentiation in model systems. […] (See, Example 24.) Without intending to be bound by theory, part of the differentiation effect may be due to depletion of UDP-GlcNAc leading to decreased O-linked N-acetylglycosylation (GlcNAc) post-translational modification of proteins.
# Bioavailability = conditions: in vivo
# Solubility = format: physicochemical
# Procedure: Solubility was determined in phosphate buffered saline (PBS) pH 7.4 with 1% DMSO. Each compound was prepared in duplicate at 100 μM in both 100% DMSO and PBS with 1% DMSO. Compounds were allowed to equilibrate at room temperature with a 250 rpm orbital shake for 24 hours. After equilibration, samples were analyzed by UPLC-MS (Waters, Milford, Mass.) with compounds detected by SIR detection on a single quadrupole mass spectrometer. The DMSO samples were used to create a two point calibration curve to which the response in PBS was fit.
# Lys-GFP-ER-HoxA9 cells [6] = assay: Cellular metabolite analysis after DHODH inhibition in vitro; format: cell-based, murine; conditions: 48 hours treatment
# Excerpt: DHODH catalyzes the conversion of dihydroorotate (DHO) to orotate in the endogenous synthesis of uridine monophosphate (UMP, FIG. 5A).
# wild-type C57B1/6 mice [7] = assay: Maximum tolerated dose (MTD) evaluation; conditions: doses higher than 15 mg/kg, after 6 days of daily dosing; reversible
# Plasma protein binding = format: in vitro ADME; conditions: consistent with published literature
# Procedure: Plasma protein binding was determined by equilibrium dialysis using the Rapid Equilibrium Dialysis (RED) device (Pierce Biotechnology, Rockford, Ill.) for both human and mouse plasma. Each compound was prepared in duplicate at 5 μM in plasma (0.95% acetonitrile, 0.05% DMSO) and added to one side of the membrane (200 μl) with PBS pH 7.4 added to the other side (350 μl). Compounds were incubated at 37° C. for 5 hours with a 250 rpm orbital shake. After incubation, samples were analyzed by UPLC-MS (Waters, Milford, Mass.) with compounds detected by SIR detection on a single quadrupole mass spectrometer.
# organ rejection = conditions: in vivo; cited from earlier work
# [8] = Brequinar plasma concentration after a single IP dose; conditions: mouse, FIG. 4E, read-out: half-life in vivo (converted)
# DHODH activity = assay: Plasma uridine and dihydroorotate (DHO) after brequinar dosing; format: in vivo, murine
# Procedure: DHODH catalyzes the conversion of dihydroorotate (DHO) to orotate in the endogenous synthesis of uridine monophosphate. Inhibition of DHODH activity results in dihydroorotate accumulation and uridine depletion.
# Plasma uridine levels were analyzed at various times thereafter (FIG. 8). […] Patient-specific dosing will be accomplished by adjusting the dose of DHODH inhibitor based on the patient's metabolism. This will involve adjusting the dosage based on the measurement of plasma DHO.
# [9] = target: panel of >400 known kinases; assay: DiscoverX KinomeScan kinase panel; format: binding
# THP1 cells [10] = assay: THP-1 subcutaneous xenograft model of AML; format: in vivo, SCID mice
# Excerpt: THP1 cells were implanted subcutaneously into the flank of SCID mice, and allowed 10 days to engraft to tumor size of ˜40 mm^2.
# [11] = tested on: HoxA9-Meis1 leukemia cells; assay: Syngeneic HoxA9 and Meis1-driven model of AML
# Excerpt: To address the anti-leukemic and differentiation effect of DHODH inhibition in vivo, we chose a syngeneic retroviral transduction model of AML. In this model, bone marrow cells are transduced with MSCV-based retrovirus expressing both HoxA9 and Meis1 oncoproteins and introduced intravenously into recipient mice that have been pre-conditioned with a sub-lethal dose of radiation. Mice that developed acute myeloid leukemia were sacrificed and bone marrow cells were expanded in vitro in media supplemented with SCF and IL-3. To permit easy tracking in vivo, leukemic cells were transduced with lentivirus expressing the Venus fluorescent protein, and double-sorted by fluorescence activated cell sorting (FACS) to purity. These Venus-expressing cultured leukemic cells were re-transplanted into pre-conditioned secondary recipient mice, and these secondary recipients were used in all described experiments. […] Mice were treated at six dosages: (1) vehicle Q2D, (2) BRQ 5 mg/kg Q2D, (3) BRQ 10 mg/kg Q2D, (4) BRQ 25 mg/kg Q2D, (5) vehicle days 1+4 of a 7-day schedule or (6) BRQ 25 mg/kg days 1+4 of a 7-day schedule. Scheduled interim euthanasia and leukemia analyses were performed at two planned time points (FIG. 6A).
# wild-type C57B1/6 mice [12] = conditions: C57B1/6, mouse, in vivo, 6 days
# [13] = tested on: leukemia initiating cells; assay: Leukemia-initiating cell activity (transplant of FACS-purified leukemia cells into tertiary recipients); format: in vivo, mice
# Excerpt: Leukemic cells isolated from the BRQ-treated mice were more differentiated on the basis of their CD11b and Gr-1 cell-surface expression (FIGS. 6C, 6D). To assess their morphology as well as their functional potential as leukemia initiating cells, live Venus-positive leukemic cells were freshly isolated from vehicle or BRQ-treated mice by fluorescence-activated cell sorting (FACS).
# FACS-purified leukemia cells from vehicle or BRQ-treated mice were re-introduced into sub-lethally irradiated tertiary recipient mice. The experiment was performed twice: from mice that received BRQ 25 mg/kg every other day for 4 doses (FIG. 7B, left panel), and from mice that received BRQ day 1+4 of a 7-day cycle for a total of 6 doses (FIG. 7B, right panel).
# [14] = 5 mg/kg or 10 mg/kg every other day
# [15] = 25 mg/kg day 1+4 of a 7-day schedule
# [16] = 25 mg/kg day 1+4 of a 7-day schedule, 6 doses
# Sequence of recombinant human DHODH protein (Q02127 whole entry): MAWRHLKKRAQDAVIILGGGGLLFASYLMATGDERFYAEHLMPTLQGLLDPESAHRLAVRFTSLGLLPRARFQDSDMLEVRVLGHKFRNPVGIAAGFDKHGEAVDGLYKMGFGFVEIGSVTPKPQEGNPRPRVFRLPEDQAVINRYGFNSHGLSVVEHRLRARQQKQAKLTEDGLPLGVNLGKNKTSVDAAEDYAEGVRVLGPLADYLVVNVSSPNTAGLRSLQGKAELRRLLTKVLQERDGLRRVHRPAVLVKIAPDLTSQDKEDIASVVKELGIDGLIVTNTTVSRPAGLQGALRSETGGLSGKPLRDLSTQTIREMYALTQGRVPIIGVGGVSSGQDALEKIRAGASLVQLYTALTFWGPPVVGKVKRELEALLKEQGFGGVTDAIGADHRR
smiles,measurement,setting,value
O=C(CCNC(=O)c1ccc(Cl)cc1)N[C@@H]1CCCc2ccccc21 [(R)-C07],DHODH enzyme inhibition,[1],inhibitors of DHODH
same,myeloid differentiation,Lys-GFP-ER-HoxA9 cells [2],triggered myeloid differentiation
same,effect of uridine supplementation of the media on differentiation,Lys-GFP-ER-HoxA9 cells [2],abrogated the differentiation effect
"CC1=C(/C=C/C(C)=C/C=C/C(C)=C/C(=O)O)C(C)(C)CCC1 [ATRA, all-trans retinoic acid]",overall survival of patients with APL,[3],75%
O=C(O)c1cccnc1Nc1ccc(Cl)cc1 [Compound C03],differentiation (upregulation of CD11b expression),U937 cells,promoted differentiation
same,DHODH enzyme inhibition,[1],inhibitors of DHODH
same,differentiation (upregulation of CD11b expression),THP1 cells [4],promoted differentiation
same,myeloid differentiation,Lys-GFP-ER-HoxA9 cells [2],triggered myeloid differentiation
same,effect of uridine supplementation of the media on differentiation,Lys-GFP-ER-HoxA9 cells [2],abrogated the differentiation effect
O=C(CCNC(=O)c1ccc(OC(F)(F)F)cc1)N[C@@H]1CCCc2ccccc21 [ML390],protein O-GlcNAc modification,[5],global reduction of protein O-GlcNAc modification
same,bioavailability,Bioavailability,low
same,DHODH enzyme inhibition,[1],DHODH was confirmed as the target
same,solubility,Solubility,low
same,accumulation of dihydroorotate,Lys-GFP-ER-HoxA9 cells [6],> 500 fold
same,uridine and downstream metabolites,Lys-GFP-ER-HoxA9 cells [6],depletion of uridine and other downstream metabolites
same,effect of uridine supplementation of the media on differentiation,Lys-GFP-ER-HoxA9 cells [2],abrogated the differentiation effect
Cc1c(-c2ccc(-c3ccccc3F)cc2)nc2ccc(F)cc2c1C(=O)O [brequinar sodium],DHODH enzyme inhibition,[1],active
same,myeloid differentiation,Lys-GFP-ER-HoxA9 cells [2],active
"Cc1c(-c2ccc(-c3ccccc3F)cc2)nc2ccc(F)cc2c1C(=O)O [brequinar, 6-fluoro-2-(2′-fluoro-[1,1′-biphenyl]-4-yl)-3-methyl-quinoline-4-carboxylic acid]",toxicity,wild-type C57B1/6 mice [7],weight loss and thrombocytopenia
same,protein O-GlcNAc modification,[5],global reduction of protein O-GlcNAc modification
same,protein-bound,Plasma protein binding,98-99%
same,prevention of organ rejection,organ rejection,effective in preventing organ rejection
same,half-life,[8],~12 h
same,"change in DHO levels, IP versus PO administration",DHODH activity; FIG. 11,similar
same,time until DHO levels undetectable again,DHODH activity; single 25 mg/kg dose,≤ 72 h
same,time to rebound of plasma uridine,DHODH activity; single dose 25 mg/kg,about 48 hours
same,kinase inhibitory activity,[9]; 100 nM,near-complete absence of kinase inhibitory activity
same,kinase inhibitory activity,[9]; 1 μM,near-complete absence of kinase inhibitory activity
same,tumor growth,THP1 cells [10]; 5 mg/kg daily IP,arrested tumor growth
same,tumor growth,THP1 cells [10]; 15 mg/kg Q3D IP,slowed tumor growth
same,reduction in cellular uridine levels,THP1 cells [10]; THP1 cells isolated from treated mice vs vehicle,90 % AUC
same,differentiation of explanted THP1 cells (CD11b expression),THP1 cells [10]; tumors explanted after 10 days of treatment,marked differentiation
same,increase in ED50,Lys-GFP-ER-HoxA9 cells [2]; cells cultured in 50% FBS,~2 fold
same,myeloid differentiation effect in vitro,Lys-GFP-ER-HoxA9 cells [2]; pulses that lasted fewer than 48-hours,almost no effect
same,survival,[11]; [14],prolongation of survival
same,tolerability,[11]; [14],well tolerated without hematologic toxicity or weight loss
same,differentiation markers on leukemic cells,[11]; 25 mg/kg Q2D for four doses,upregulation of differentiation markers CD11b (Mac-1) and Gr-1 (Ly6C/G)
same,"leukemic involvement of bone marrow, spleen and peripheral blood",[11]; 25 mg/kg Q2D for four doses,"dramatic decrease in the leukemic involvement of their bone marrow, spleen, and peripheral blood"
same,side effects,[11]; 25 mg/kg Q2D for four doses,"weight loss, anemia, and thrombocytopenia"
same,time off treatment until relapse with leukemia,"[11]; 25 mg/kg day 1+4, discontinued after 14 doses (day 59)",approximately 4 weeks
same,survival,[11]; [15],even more dramatic prolongation of survival
same,toxicity,[11]; [15],without toxicity
same,"leukemic involvement of bone marrow, spleen and peripheral blood",[11]; [16],"even more dramatic decrease in the leukemic involvement of their bone marrow, spleen, and peripheral blood"
same,side effects,[11]; [16],none of the side effects
same,"cellular uridine, UDP and UDP-glycoconjugates",[11]; HoxA9-Meis1 leukemia cells from bone marrow of treated mice,significant reduction in cellular uridine
same,tolerability and efficacy,"[11]; administered every 3-days, mouse model of AML",both effective against AML and well-tolerated
same,tolerated dose,wild-type C57B1/6 mice [12],up to 15 mg/kg
same,morphology of leukemic cells isolated from treated mice,[13]; Wright-Giemsa cytospin,morphologic granulocytic differentiation
same,leukemia development in recipients of leukemic cells from treated donors,"[13]; donors: 25 mg/kg every other day 4 doses, or day 1+4 of 7-day cycle 6 doses, both cases",took longer to develop symptoms of leukemia
Nc1ccn([C@@H]2O[C@H](CO)[C@@H](O)[C@@H]2O)c(=O)n1 [cytarabine],myeloid differentiation,Lys-GFP-ER-HoxA9 cells [2],cytotoxicity without differentiation
COc1cccc2c1C(=O)c1c(O)c3c(c(O)c1C2=O)C[C@@](O)(C(C)=O)C[C@@H]3O[C@H]1C[C@H](N)[C@H](O)[C@H](C)O1 [daunorubicin],myeloid differentiation,Lys-GFP-ER-HoxA9 cells [2],cytotoxicity without differentiation
"Cc1oncc1C(=O)Nc1ccc(C(F)(F)F)cc1 [leflunomide, 5-methyl-N-[4-(trifluoromethyl)phenyl]-isoxazole-4-carboxamide]",myeloid differentiation,Lys-GFP-ER-HoxA9 cells [2],active
same,leukemic burden,[11]; 25 mg/kg daily,did not result in a reduction in leukemic burden
same,expression of the differentiation marker CD11b,[11]; 25 mg/kg daily (highest dosage),very mild increase
CN(Cc1cnc2nc(N)nc(N)c2n1)c1ccc(C(=O)N[C@@H](CCC(=O)O)C(=O)O)cc1 [methotrexate],myeloid differentiation,Lys-GFP-ER-HoxA9 cells [2],cytotoxicity without differentiation
NC(=O)c1[nH]nc([C@@H]2O[C@H](CO)[C@@H](O)[C@H]2O)c1O [pyrazofurin],myeloid differentiation,Lys-GFP-ER-HoxA9 cells [2],phenocopied the differentiation effect of DHODH inhibition
same,effect of uridine supplementation of the media on differentiation,Lys-GFP-ER-HoxA9 cells [2],abrogated the differentiation effect
"C/C(O)=C(\C#N)C(=O)Nc1ccc(C(F)(F)F)cc1 [teriflunomide, (2Z)-2-cyano-3-hydroxy-N-[4-(trifluoromethyl)phenyl]but-2-enamide]",DHODH enzyme inhibition,[1],active
same,myeloid differentiation,Lys-GFP-ER-HoxA9 cells [2],active
